# Assay results taken from PubChem BioAssay AID330 (DTP/NCI, 2004).
# Several values for one entry are separate records, joined by “and”; a condition that tells them apart may be missing. Equal values may be shown once. Toxic doses and inconclusive results are not listed.
# Tested on: P388 leukemia ip, CD2F1 mice, survival T/C
# Assay: NCI In Vivo Anticancer Drug Screen. Data for tumor model P388 Leukemia (intraperitoneal) in CD2F1 (CDF1) mice
# Details: endpoint: median survival time, higher = longer survival
# Method in brief: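 Mice carrying the transplanted tumor received test compound or vehicle. Survival was recorded in each group, and the value is the treated-group measurement divided by that of the vehicle-treated control group.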
# [1] = dose: 12.5 mg/kg/injection, schedule: Q01DX009 (ip), vehicle: saline with Tween-80
# [2] = dose: 25.0 mg/kg/injection, schedule: Q01DX009 (ip), vehicle: saline with Tween-80
# [3] = dose: 50.0 mg/kg/injection, schedule: Q01DX009 (ip), vehicle: saline with Tween-80
# [4] = dose: 60.0 mg/kg/injection, schedule: Q01DX005 (ip), vehicle: saline
# [5] = dose: 120.0 mg/kg/injection, schedule: Q01DX005 (ip), vehicle: saline
# [6] = dose: 100.0 mg/kg/injection, schedule: Q01DX001 (ip), vehicle: Klucel (hydroxypropylcellulose) (HPC)
# [7] = dose: 200.0 mg/kg/injection, schedule: Q01DX001 (ip), vehicle: Klucel (hydroxypropylcellulose) (HPC)
# [8] = dose: 400.0 mg/kg/injection, schedule: Q01DX001 (ip), vehicle: Klucel (hydroxypropylcellulose) (HPC)
# [9] = dose: 25.0 mg/kg/injection, schedule: Q01DX009 (ip), vehicle: saline
# [10] = dose: 100.0 mg/kg/injection, schedule: Q01DX009 (ip), vehicle: saline with Tween-80
# [11] = dose: 50.0 mg/kg/injection, schedule: Q01DX005 (ip), vehicle: Klucel (hydroxypropylcellulose) (HPC)
# [12] = dose: 100.0 mg/kg/injection, schedule: Q01DX005 (ip), vehicle: Klucel (hydroxypropylcellulose) (HPC)
# [13] = dose: 200.0 mg/kg/injection, schedule: Q01DX005 (ip), vehicle: Klucel (hydroxypropylcellulose) (HPC)
# [14] = dose: 240.0 mg/kg/injection, schedule: Q01DX005 (ip), vehicle: saline with Tween-80
smiles,measurement,setting,value
CN1C(=O)C=CC1=O,T/C,"dose: 0.5 mg/kg/injection, schedule: Q01DX009 (ip), vehicle: saline",96 % of control
same,T/C,"dose: 1.0 mg/kg/injection, schedule: Q01DX009 (ip), vehicle: saline",103 % of control
same,T/C,"dose: 2.0 mg/kg/injection, schedule: Q01DX009 (ip), vehicle: saline",100 % of control
same,T/C,"dose: 4.0 mg/kg/injection, schedule: Q01DX009 (ip), vehicle: saline",101 % of control
COc1ccccc1-c1cn(O)c(=N)c(C#N)n1,T/C,"dose: 6.25 mg/kg/injection, schedule: Q01DX009 (ip), vehicle: saline with Tween-80",89 % of control
same,T/C,[1],94 % of control
same,T/C,[2],94 % of control
CCN(CC)CCNc1ccc(C)c2sc3ccc(OC)cc3c(=O)c12,T/C,[2],115 % of control
same,T/C,[3],115 % of control and 90 % of control
CC(=O)CC1(O)CCCC1,T/C,[4],98 % of control
same,T/C,[5],105 % of control
same,T/C,"dose: 240.0 mg/kg/injection, schedule: Q01DX005 (ip), vehicle: saline",100 % of control
Cn1nnnc1NC#N,T/C,[6],107 % of control
same,T/C,[7],113 % of control
same,T/C,[8],108 % of control
C(=Nc1ccc2ccccc2c1)Nc1ccc2ccccc2c1.[Cu+2],T/C,[9],115 % of control
same,T/C,[3],117 % of control
O=C(Oc1ccccc1)N1CCCC(O)C1 (configuration not stated),T/C,"dose: 50.0 mg/kg/injection, schedule: Q01DX009 (ip), vehicle: Klucel (hydroxypropylcellulose) (HPC)",96 % of control
same,T/C,"dose: 100.0 mg/kg/injection, schedule: Q01DX009 (ip), vehicle: Klucel (hydroxypropylcellulose) (HPC)",105 % of control
same,T/C,"dose: 200.0 mg/kg/injection, schedule: Q01DX009 (ip), vehicle: Klucel (hydroxypropylcellulose) (HPC)",100 % of control
C[CH2][Sn]([CH2]C)([CH2]C(=O)OC)[CH2]C(=O)OC,T/C,"dose: 9.0 mg/kg/injection, schedule: Q03HX015 (ip), vehicle: saline with Tween-80",153 % of control
same,T/C,[1],170 % of control
same,T/C,"dose: 18.0 mg/kg/injection, schedule: Q01DX005 (ip), vehicle: saline with Tween-80",150 % of control
same,T/C,[10],174 % of control
S=c1nc(-c2ccccc2)[nH]c(=S)[nH]1,T/C,[6],99 % of control
same,T/C,[7],106 % of control
same,T/C,[8],92 % of control
CC([OH2+])CNCCN.CC([OH2+])CNCCN.[Ni+2].[O-][Cl+3]([O-])([O-])[O-] (configuration not stated),T/C,"dose: 12.5 mg/kg/injection, schedule: Q01DX009 (ip), vehicle: saline",111 % of control
same,T/C,[9],100 % of control
CC(C)(C)SC(=O)CC(O)(c1ccccc1)c1ccccc1,T/C,"dose: 100.0 mg/kg/injection, schedule: Q04DX003 (ip), vehicle: Klucel (hydroxypropylcellulose) (HPC)",115 % of control
same,T/C,"dose: 200.0 mg/kg/injection, schedule: Q04DX003 (ip), vehicle: Klucel (hydroxypropylcellulose) (HPC)",106 % of control
same,T/C,"dose: 400.0 mg/kg/injection, schedule: Q04DX003 (ip), vehicle: Klucel (hydroxypropylcellulose) (HPC)",95 % of control
OCC1OC(SC2OC(CO)C(O)C(O)C2O)C(O)C(O)C1O (configuration not stated),T/C,"dose: 100.0 mg/kg/injection, schedule: Q01DX001 (ip), vehicle: water",114 % of control
same,T/C,"dose: 200.0 mg/kg/injection, schedule: Q01DX001 (ip), vehicle: water",94 % of control
same,T/C,"dose: 400.0 mg/kg/injection, schedule: Q01DX001 (ip), vehicle: water",100 % of control
CCOC(=O)C(Cc1ccccc1Cl)(Cc1ccccc1Cl)c1ccccc1,T/C,"dose: 266.0 mg/kg/injection, schedule: Q01DX009 (ip), vehicle: saline with Tween-80",98 % of control
same,T/C,"dose: 400.0 mg/kg/injection, schedule: Q01DX009 (ip), vehicle: saline with Tween-80",111 % of control
same,T/C,"dose: 600.0 mg/kg/injection, schedule: Q01DX009 (ip), vehicle: saline with Tween-80",96 % of control
CCOc1c(N=Nc2ccccc2OC)c(C)nn1C(=S)SC,T/C,"dose: 15.0 mg/kg/injection, schedule: Q01DX005 (ip), vehicle: Klucel + Tween-80",92 % of control
same,T/C,"dose: 30.0 mg/kg/injection, schedule: Q01DX005 (ip), vehicle: Klucel + Tween-80",92 % of control
same,T/C,"dose: 60.0 mg/kg/injection, schedule: Q01DX005 (ip), vehicle: Klucel + Tween-80",90 % of control
COc1cc(/C=C(/NC(=O)c2ccccc2)C(O)=C(C#N)C#N)ccc1O,T/C,[4],95 % of control
same,T/C,[5],91 % of control
Oc1ccccc1C=Nc1c(Cl)cc(Cl)cc1Cl,T/C,[11],105 % of control
same,T/C,[12],109 % of control
same,T/C,[13],107 % of control
O=C(CCCCl)CC(O)(C(F)(F)Cl)C(F)(F)Cl,T/C,"dose: 25.0 mg/kg/injection, schedule: Q04DX003 (ip), vehicle: saline",100 % of control
same,T/C,"dose: 50.0 mg/kg/injection, schedule: Q04DX003 (ip), vehicle: saline",100 % of control
same,T/C,"dose: 100.0 mg/kg/injection, schedule: Q04DX003 (ip), vehicle: saline",95 % of control
CSC(SC)(SC)c1cc(-c2c(Cl)cccc2Cl)no1,T/C,"dose: 50.0 mg/kg/injection, schedule: Q01DX005 (ip), vehicle: saline with Tween-80",93 % of control
same,T/C,"dose: 100.0 mg/kg/injection, schedule: Q01DX005 (ip), vehicle: saline with Tween-80",102 % of control
same,T/C,"dose: 200.0 mg/kg/injection, schedule: Q01DX005 (ip), vehicle: saline with Tween-80",93 % of control
CC1CN1c1cc(O)c(N2CC2C)cc1O (configuration not stated),T/C,"dose: 0.29 mg/kg/injection, schedule: Q01DX009 (ip), vehicle: saline with Tween-80",100 % of control
same,T/C,"dose: 0.44 mg/kg/injection, schedule: Q01DX009 (ip), vehicle: saline with Tween-80",118 % of control
same,T/C,"dose: 0.63 mg/kg/injection, schedule: Q04DX003 (ip), vehicle: saline with Tween-80",109 % of control
same,T/C,"dose: 0.66 mg/kg/injection, schedule: Q01DX009 (ip), vehicle: saline with Tween-80",122 % of control
same,T/C,"dose: 2.5 mg/kg/injection, schedule: Q04DX003 (ip), vehicle: saline with Tween-80",150 % of control
same,T/C,"dose: 4.4 mg/kg/injection, schedule: Q04DX003 (ip), vehicle: saline with Tween-80",228 % of control
same,T/C,"dose: 5.0 mg/kg/injection, schedule: Q04DX003 (ip), vehicle: saline with Tween-80",159 % of control
same,T/C,"dose: 6.6 mg/kg/injection, schedule: Q04DX003 (ip), vehicle: saline with Tween-80",238 % of control
Cc1cc(C)c(S(=O)(=O)N/N=C(\CBr)c2ccccc2)c(C)c1,T/C,"dose: 7.5 mg/kg/injection, schedule: Q01DX005 (ip), vehicle: saline with Tween-80",97 % of control
same,T/C,"dose: 15.0 mg/kg/injection, schedule: Q01DX005 (ip), vehicle: saline with Tween-80",91 % of control
same,T/C,"dose: 30.0 mg/kg/injection, schedule: Q01DX005 (ip), vehicle: saline with Tween-80",102 % of control
same,T/C,[14],89 % of control
Cc1nn(-c2ccccc2)nc1CCl,T/C,[11],101 % of control
same,T/C,[12],99 % of control
same,T/C,[13],95 % of control
CC(=O)OC(OC(C)=O)c1cc(Cl)c(C(OC(C)=O)OC(C)=O)cc1Cl,T/C,"dose: 60.0 mg/kg/injection, schedule: Q01DX005 (ip), vehicle: Klucel (hydroxypropylcellulose) (HPC)",107 % of control
same,T/C,"dose: 120.0 mg/kg/injection, schedule: Q01DX005 (ip), vehicle: Klucel (hydroxypropylcellulose) (HPC)",106 % of control
same,T/C,"dose: 240.0 mg/kg/injection, schedule: Q01DX005 (ip), vehicle: Klucel (hydroxypropylcellulose) (HPC)",103 % of control
NNS(=O)(=O)c1cc(C(=O)O)cc(C(=O)O)c1,T/C,"dose: 100.0 mg/kg/injection, schedule: Q01DX001 (ip), vehicle: saline with Tween-80",109 % of control
same,T/C,"dose: 200.0 mg/kg/injection, schedule: Q01DX001 (ip), vehicle: saline with Tween-80",100 % of control
same,T/C,"dose: 400.0 mg/kg/injection, schedule: Q01DX001 (ip), vehicle: saline with Tween-80",90 % of control
Cc1ccnc(NS(=O)(=O)c2ccc(N=Cc3c4ccccc4nc4cc(Cl)ccc34)cc2)n1,T/C,"dose: 60.0 mg/kg/injection, schedule: Q01DX005 (ip), vehicle: saline with Tween-80",96 % of control
same,T/C,"dose: 120.0 mg/kg/injection, schedule: Q01DX005 (ip), vehicle: saline with Tween-80",93 % of control
same,T/C,[14],96 % of control
CCOC(=O)C(Cc1ccccc1)NC(=O)N(CCCl)CCCl (configuration not stated),T/C,"dose: 66.0 mg/kg/injection, schedule: Q04DX003 (ip), vehicle: saline with Tween-80",109 % of control
same,T/C,[10],109 % of control
same,T/C,"dose: 150.0 mg/kg/injection, schedule: Q04DX003 (ip), vehicle: saline with Tween-80",113 % of control
same,T/C,"dose: 200.0 mg/kg/injection, schedule: Q01DX009 (ip), vehicle: saline with Tween-80",122 % of control
N#CN1C2C=CC(c3ccccc3)NC21 (configuration not stated),T/C,[3],100 % of control
same,T/C,[10],96 % of control
